Data taken from ChEMBL document CHEMBL5052846, “Pyridine derivatives as kif18a inhibitors” (2021).

Target: T1, Kinesin-like protein KIF18A (Homo sapiens, UniProt Q8NI77)
T1 sequence (Q8NI77 whole entry): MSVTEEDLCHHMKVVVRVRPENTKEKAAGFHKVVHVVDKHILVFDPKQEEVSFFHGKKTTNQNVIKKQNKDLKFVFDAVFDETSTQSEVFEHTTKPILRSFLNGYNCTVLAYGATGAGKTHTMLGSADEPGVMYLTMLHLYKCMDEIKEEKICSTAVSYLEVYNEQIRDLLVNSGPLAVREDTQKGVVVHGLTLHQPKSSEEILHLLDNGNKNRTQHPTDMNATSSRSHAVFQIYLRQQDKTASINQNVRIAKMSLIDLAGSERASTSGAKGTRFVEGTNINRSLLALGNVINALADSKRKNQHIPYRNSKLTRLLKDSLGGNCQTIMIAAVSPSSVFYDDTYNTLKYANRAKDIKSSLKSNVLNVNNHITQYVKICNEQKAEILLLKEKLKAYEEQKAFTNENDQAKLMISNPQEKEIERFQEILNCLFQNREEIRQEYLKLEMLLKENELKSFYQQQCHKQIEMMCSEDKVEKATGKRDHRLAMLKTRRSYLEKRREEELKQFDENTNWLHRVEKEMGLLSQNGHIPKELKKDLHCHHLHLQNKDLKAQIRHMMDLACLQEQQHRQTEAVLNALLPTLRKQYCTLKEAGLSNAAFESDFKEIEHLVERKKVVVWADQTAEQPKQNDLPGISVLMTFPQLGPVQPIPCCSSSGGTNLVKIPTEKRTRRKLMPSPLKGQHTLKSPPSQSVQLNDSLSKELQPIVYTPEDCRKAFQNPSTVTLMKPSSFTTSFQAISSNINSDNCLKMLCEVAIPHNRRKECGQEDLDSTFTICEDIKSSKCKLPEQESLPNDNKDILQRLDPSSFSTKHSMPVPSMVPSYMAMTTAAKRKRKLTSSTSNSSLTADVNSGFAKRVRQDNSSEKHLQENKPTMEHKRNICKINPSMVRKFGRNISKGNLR
Test: Inhibition of recombinant His-tagged human KIF18A (1 to 467 residues) expressed in baculovirus expression system assessed as inhibition of microtubule-stimulated ATPase activity preincubated for 15 mins followed by ATP addition and further incubated for 15 mins and measured after 40 mins by ADP-Glo reagent based assay

IC50: 189 nM
Compound: CC(C)(C)NS(=O)(=O)c1cccc(NC(=O)c2ccc(N3CC[C@@H](O)C3)nc2N2CCC3(CC2)CC3)c1
